Read-outs that look alike come from different tables or passages of the source.
Experiments:
mice = assay: in vivo; conditions: for tolerance: LD50 intravenously in mice, compared with d,l-carnitine
Source text: (§1) The tolerance of acetyl-d,l-carnitine and of the other aforementioned acyl derivatives of the formula (I), as well as their salts were investigated by comparing the LD50 obtained by administering the compounds intravenously in mice with the LD50 obtained under the same experimental conditions by intravenous injection of d,l-carnitine.

in vivo = conditions: mouse, in vivo, iv
Source text: as §1

isolated rat atrium = assay: antiarrhythmic effect, isolated rat atrium method of M. Libonati and G. Segre; conditions: for inhibition at 0.1 µg/mL / activation at 0.1 µg/mL / inhibition at 0.01 µg/mL / activation at 0.01 µg/mL / inhibition at 0.001 µg/mL / activation at 0.001 µg/mL: Rattus norvegicus; for inhibition at 0.1 µg/mL / inhibition at 0.01 µg/mL / inhibition at 0.001 µg/mL / Mean percent variation versus controls: excitability (-%) / Mean percent variation versus controls: frequency max (-%): decrease; for activation at 0.1 µg/mL / activation at 0.01 µg/mL / activation at 0.001 µg/mL / Mean percent variation versus controls: refractory period (+%) / Mean percent variation versus controls: rheobase (+%): increase
isolated rabbit hearts [1] = assay: coronary vasodilator effect: coronary flow, isolated heart (Langendorff)
Outline: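 Langendorff-perfused isolated rabbit hearts in oxygenated Ringer at 38.2° C; anoxia imposed until contractile force fell by 80%, then reoxygenated with or without test compound. Coronary flow, isometric contraction and ECG recorded by polygraph.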

female rats = assay: antifatigue effect: rota-rod; format: in vivo, rat; conditions: for responders at 300 mg/kg / responders at 400 mg/kg / responders at 600 mg/kg: Rattus norvegicus, ip, 0.25 h, read-out: percentage of animals staying on the rota-rod more than 180 seconds
Outline: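 Female rats dosed intraperitoneally in saline, with controls given saline alone. Every 15 min after treatment animals were placed on a 6 cm rod rotating at 16 r.p.m. Value is the percentage of animals staying on the rod for more than 180 s, per session.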

isolated rabbit hearts [2] = assay: cardiokinetic effect on isolated heart (Langendorff): contractile force after anoxia, positive inotropic effect; conditions: for Contractile force, Mean ± S.E.: 10 minutes from interruption of anoxic period
Outline: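 Rabbit hearts were perfused Langendorff-style with oxygenated Ringer at 38.2 °C. Anoxia was applied until contractile force dropped by 80%, then the hearts were reoxygenated with or without compound. Contractile force was expressed as a percentage 10 min after the anoxic period ended.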

[3] = test system: adrenaline-induced toxicity; assay: antagonism to adrenaline-induced toxicity; format: in vivo, male albino Swiss mice
Procedure: The antagonism to adrenaline-induced toxicity was also investigated with the following results. Groups of ten male albino Swiss mice were injected with adrenaline (tartrate) intraperitoneally at progressive logarithmic doses. Other similar groups of animals were injected with 250 mg/kg of the compounds under examination via the same route, 30 minutes before adrenaline administration. Mortality was assessed by means of the Litchfield and Wilcoxon method 36 hours after adrenaline administration.

[4] = 300 mg/kg i.p., session 1 (every 15 minutes)
[5] = 300 mg/kg i.p., session 2 (every 15 minutes)
[6] = 300 mg/kg i.p., session 4 (every 15 minutes)
[7] = 300 mg/kg i.p., session 5 (every 15 minutes)
[8] = 300 mg/kg i.p., session 6 (every 15 minutes)
[9] = 400 mg/kg i.p., session 1 (every 15 minutes)
[10] = 400 mg/kg i.p., session 2 (every 15 minutes)
[11] = 400 mg/kg i.p., session 3 (every 15 minutes)
[12] = 400 mg/kg i.p., session 4 (every 15 minutes)
[13] = 400 mg/kg i.p., session 5 (every 15 minutes)
[14] = 400 mg/kg i.p., session 6 (every 15 minutes), * p < 0.05
[15] = 600 mg/kg i.p., session 1 (every 15 minutes)
[16] = 600 mg/kg i.p., session 2 (every 15 minutes)
[17] = 600 mg/kg i.p., session 3 (every 15 minutes)
[18] = 600 mg/kg i.p., session 4 (every 15 minutes)
[19] = 600 mg/kg i.p., session 5 (every 15 minutes)
[20] = 600 mg/kg i.p., session 6 (every 15 minutes), * p < 0.05

CC(=O)CC(=O)OC(CC(=O)[O-])C[N+](C)(C)C (racemic) [acetoacetyl-d,l-carnitine]
tolerance (mice): better tolerance properties | LD50 (in vivo): ~728 mg/kg | inhibition at 0.1 µg/mL (isolated rat atrium; 1·10^-4 g/lt, read-out: Mean percent variation versus controls: excitability (-%)): 40.1% | inhibition at 0.1 µg/mL (isolated rat atrium; 1·10^-4 g/lt, read-out: Mean percent variation versus controls: frequency max (-%)): 25.5% | activation at 0.1 µg/mL (isolated rat atrium; 1·10^-4 g/lt, read-out: Mean percent variation versus controls: refractory period (+%)): 22.8% | activation at 0.1 µg/mL (isolated rat atrium; 1·10^-4 g/lt, read-out: Mean percent variation versus controls: rheobase (+%)): 21.9% | inhibition at 0.01 µg/mL (isolated rat atrium; 1·10^-5 g/lt, read-out: Mean percent variation versus controls: excitability (-%)): 27.1% | inhibition at 0.01 µg/mL (isolated rat atrium; 1·10^-5 g/lt, read-out: Mean percent variation versus controls: frequency max (-%)): 22.7% | activation at 0.01 µg/mL (isolated rat atrium; 1·10^-5 g/lt, read-out: Mean percent variation versus controls: refractory period (+%)): 14.7% | activation at 0.01 µg/mL (isolated rat atrium; 1·10^-5 g/lt, read-out: Mean percent variation versus controls: rheobase (+%)): 9.94% | inhibition at 0.001 µg/mL (isolated rat atrium; 1·10^-6 g/lt, read-out: Mean percent variation versus controls: excitability (-%)): 12.2% | inhibition at 0.001 µg/mL (isolated rat atrium; 1·10^-6 g/lt, read-out: Mean percent variation versus controls: frequency max (-%)): 7.34% | activation at 0.001 µg/mL (isolated rat atrium; 1·10^-6 g/lt, read-out: Mean percent variation versus controls: refractory period (+%)): 10.7% | activation at 0.001 µg/mL (isolated rat atrium; 1·10^-6 g/lt, read-out: Mean percent variation versus controls: rheobase (+%)): 3.01% | Coronary flow, Mean ± S.E. (isolated rabbit hearts [1]; 1·10^-5 g/lt): 89.82 ± 6.38% | Coronary flow, Mean ± S.E. (isolated rabbit hearts [1]; 1·10^-6 g/lt): 74.65 ± 3.54% | Coronary flow, Mean ± S.E. (isolated rabbit hearts [1]; 5·10^-6 g/lt): 75.70 ± 10.1% | responders at 300 mg/kg (female rats; [4]): 0% | responders at 300 mg/kg (female rats; [5]): 0% | responders at 300 mg/kg (female rats; [6]): 10% | responders at 300 mg/kg (female rats; [7]): 10% | responders at 300 mg/kg (female rats; [8]): 10% | responders at 400 mg/kg (female rats; [9]): 0% | responders at 400 mg/kg (female rats; [10]): 0% | responders at 400 mg/kg (female rats; [11]): 20% | responders at 400 mg/kg (female rats; [12]): 20% | responders at 400 mg/kg (female rats; [13]): 20% | responders at 400 mg/kg (female rats; [14]): 30% | responders at 600 mg/kg (female rats; [15]): 0% | responders at 600 mg/kg (female rats; [16]): 10% | responders at 600 mg/kg (female rats; [17]): 20% | responders at 600 mg/kg (female rats; [18]): 40% | responders at 600 mg/kg (female rats; [19]): 40% | responders at 600 mg/kg (female rats; [20]): 40% | Contractile force, Mean ± S.E. (isolated rabbit hearts [2]; 1·10^-5 g/lt): 58.3 ± 5.08% | Contractile force, Mean ± S.E. (isolated rabbit hearts [2]; 1·10^-6 g/lt): 30.1 ± 3.98% | Contractile force, Mean ± S.E. (isolated rabbit hearts [2]; 5·10^-6 g/lt): 38.2 ± 4.66%

CC(O)CC(=O)OC(CC(=O)[O-])C[N+](C)(C)C (stereo not shown)
tolerance (mice): better tolerance properties | Approx. LD50 (mice; intravenously in mice, compounds used as hydrochloryde forms): ~745 mg/kg | antagonism to adrenaline-induced toxicity ([3]; 250 mg/kg i.p. 30 minutes before adrenaline): antagonize adrenaline-induced toxicity to a greater degree than d,l-carnitine | LD50 (fiducial limits for 95%) of adrenaline after the compound ([3]; Adrenaline + compound, compound 250 mg/kg i.p. 30 minutes before adrenaline, mice, mortality 36 hours): 172.15 (110.02-219.48) mg/kg | Mean percent variation versus controls: excitability (-%) (isolated rat atrium; 1·10^-4 g/lt): 63.60% | Mean percent variation versus controls: frequency max (-%) (isolated rat atrium; 1·10^-4 g/lt): 42.30% | Mean percent variation versus controls: refractory period (+%) (isolated rat atrium; 1·10^-4 g/lt): 27.10% | Mean percent variation versus controls: rheobase (+%) (isolated rat atrium; 1·10^-4 g/lt): 42.12% | Mean percent variation versus controls: excitability (-%) (isolated rat atrium; 1·10^-5 g/lt): 19.12% | Mean percent variation versus controls: frequency max (-%) (isolated rat atrium; 1·10^-5 g/lt): 23.20% | Mean percent variation versus controls: refractory period (+%) (isolated rat atrium; 1·10^-5 g/lt): 20.31% | Mean percent variation versus controls: rheobase (+%) (isolated rat atrium; 1·10^-5 g/lt): 25.35% | Mean percent variation versus controls: excitability (-%) (isolated rat atrium; 1·10^-6 g/lt): 12.07% | Mean percent variation versus controls: frequency max (-%) (isolated rat atrium; 1·10^-6 g/lt): 10.02% | Mean percent variation versus controls: refractory period (+%) (isolated rat atrium; 1·10^-6 g/lt): 16.32% | Mean percent variation versus controls: rheobase (+%) (isolated rat atrium; 1·10^-6 g/lt): 9.78% | antiarrhythmic effect (isolated rat atrium; isolated rat atrium): most clear cut antiarrhythmic properties | Coronary flow, Mean ± S.E. (isolated rabbit hearts [1]; 1·10^-5 g/lt): 89.19 ± 6.75% | Coronary flow, Mean ± S.E. (isolated rabbit hearts [1]; 1·10^-6 g/lt): 73.12 ± 6.80% | Coronary flow, Mean ± S.E. (isolated rabbit hearts [1]; 5·10^-6 g/lt): 76.04 ± 8.96% | percentage of animals staying on the rota-rod more than 180 seconds (female rats; [4]): 0% | percentage of animals staying on the rota-rod more than 180 seconds (female rats; [5]): 0% | percentage of animals staying on the rota-rod more than 180 seconds (female rats; 300 mg/kg i.p., session 3 (every 15 minutes)): 0% | percentage of animals staying on the rota-rod more than 180 seconds (female rats; [6]): 0% | percentage of animals staying on the rota-rod more than 180 seconds (female rats; [7]): 10.0% | percentage of animals staying on the rota-rod more than 180 seconds (female rats; [8]): 20.0% | percentage of animals staying on the rota-rod more than 180 seconds (female rats; [9]): 0% | percentage of animals staying on the rota-rod more than 180 seconds (female rats; [10]): 0% | percentage of animals staying on the rota-rod more than 180 seconds (female rats; [11]): 10.0% | percentage of animals staying on the rota-rod more than 180 seconds (female rats; [12]): 20.0% | percentage of animals staying on the rota-rod more than 180 seconds (female rats; [13]): 20.0% | percentage of animals staying on the rota-rod more than 180 seconds (female rats; [14]): 30.0% | percentage of animals staying on the rota-rod more than 180 seconds (female rats; [15]): 0% | percentage of animals staying on the rota-rod more than 180 seconds (female rats; [16]): 0% | percentage of animals staying on the rota-rod more than 180 seconds (female rats; [17]): 10.0% | percentage of animals staying on the rota-rod more than 180 seconds (female rats; [18]): 20.0% | percentage of animals staying on the rota-rod more than 180 seconds (female rats; [19]): 30.0% | percentage of animals staying on the rota-rod more than 180 seconds (female rats; [20]): 40.0% | Contractile force, Mean ± S.E. (isolated rabbit hearts [2]; 1·10^-5 g/lt): 54.3 ± 6.18% | Contractile force, Mean ± S.E. (isolated rabbit hearts [2]; 1·10^-6 g/lt): 30.1 ± 4.62% | Contractile force, Mean ± S.E. (isolated rabbit hearts [2]; 5·10^-6 g/lt): 38.6 ± 7.12% | positive inotropic effect (isolated rabbit hearts [2]; equal concentrations in the perfusion fluid, Student's t test): greater positive inotropic effect than that induced by d,l-carnitine

Reference: patent US4194006A, “Therapeutic application of acetyl-d,l-carnitine and other acyl derivatives of d,l-carnitine” (priority 1977, dated 1980)
